The values that follow come from article PMC2994686, “The Function and Three-Dimensional Structure of a Thromboxane A2/Cysteinyl Leukotriene-Binding Protein from the Saliva of a Mosquito Vector of the Malaria Parasite” (PLoS Biology, 2010).

Broadly, the EC50 is the concentration giving half of the maximal effect.

Assay [1] relates to Human platelet-rich plasma. As to the kind of experiment: Platelet aggregation assay in an aggregometer. The format is cell-based. Particulars: for effect on collagen-induced platelet aggregation (comparison with TXA2 antagonists): 3 µM AnSt-D7L1, SQ 29,548, or indomethacin pre-treatment; for effect on U46619-induced platelet shape change / effect on U46619-induced platelet aggregation: 1.3 µM U46619; for effect on U46619-induced platelet shape change: AnSt-D7L1 2 and 3 µM, SQ 29,548 1 µM without protein. As for the experimental part:
Figure 5 Effect of AnSt-D7L1 on platelet aggregation promoted by different agonists. Platelet-rich human plasma was incubated with different concentrations of AnSt-D7L1 for 1 min prior to the addition of agonists as indicated. Aggregation was measured at 37°C on an aggregometer. Unless otherwise stated protein concentration (µM) is shown under respective curves. (A) Concentration dependence of AnSt-D7L1 inhibition of collagen-mediated platelet aggregation at low concentration of collagen. (B) Lack of inhibition of collagen-mediated platelet aggregation by AnSt-D7L1 at high concentration of collagen. (C) Lack of inhibition of convulxin-mediated platelet aggregation by AnSt-D7L1. (D) ADP-mediated platelet aggregation in the absence of any protein (control), in the presence of 3 µM AnSt-D7L1, or in the presence of 3 µM RPAI1, which is known to bind ADP. (E) Lack of effect of AnSt-D7L1 on PMA-induced platelet aggregation. (F) Lack of effect of AnSt-D7L1 on ristocetin-induced platelet aggregation.
Figure 6 AnSt-D7L1 affects platelet aggregation promoted by TXA2. Platelet-rich human plasma was incubated with different concentrations of AnSt-D7L1 or buffer, as indicated, for 1 min prior to the addition of agonists indicated in each panel. (A) Aggregation mediated by collagen in the presence of TXA2 antagonists. The effect of 3 µM AnSt-D7L1 on collagen-induced aggregation was similar to the effect promoted by a thromboxane receptor (TP) antagonist (SQ 29,548) or by pre-incubating platelets with indomethacin, a general cyclooxygenase inhibitor. […] (B) AnSt-D7L1 has a dose dependent effect on U46619-induced platelet aggregation. Protein concentrations are shown on the bottom of each curve. […] (C) AnSt-D7L1 (3 µM) affects AA-induced platelet aggregation. […] Respective treatments are indicated in the bottom of each curve.
Platelets were prepared as described previously. Human platelet-rich plasma (∼2×10^5/µL final density) and Tyrode-BSA buffer in the presence or absence of AnSt-D7L1 (final volume 300 µL) were placed in an aggregometer and stirred at 1,200 rpm at 37°C for 1 min prior to the addition of different agonists. In experiments using the human TP (TXA2 receptor) antagonist SQ 29,548 or made in the presence of proteins (AnSt-D7L1 or RPAI-1), those compounds were added to the platelet suspension and Tyrode mix prior to addition of agonists. In experiments in which indomethacin, a general cycloxygenase inhibitor, was used, platelets were pre-incubated with the compound for 5 min prior to addition of agonists.

In assay [2] the target is T1, AnSt-D7L1 (Anopheles stephensi, UniProt Q95NY5). As to the kind of experiment: Incubation of LTC4 with AnSt-D7L1, gel filtration, HPLC and mass spectrometry (test for hydrolytic or enzymatic function). The arrangement: made in house. Particulars: incubated at 25°C; mass spectrum of bound versus free ligand. As for the experimental part:
Fractions containing the complex were then applied to a C18 HPLC column, eluted with methanol, and analyzed by mass spectrometry.
(B) LTC4 was injected alone in order to obtain a retention volume measurement for the free ligand. In both cases, the column was eluted with 100 mM ammonium acetate pH 7.2 at a flow rate of 60 µL per min. (0.39 MB TIF) Click here for additional data file.
Supplementary file pbio.1000547.s003.tif: Figure S3 Mass spectral analysis of the AnSt-D7L1-LTC4 complex after gel filtration chromatography. Top: The peak fraction from the gel filtration of Figure S2 (3 µl) was applied to a C18 column and eluted with 5% methanol 0.1% acetic acid for 10 min, then 5%–95% methanol 0.1% acetic acid (0.3 mm diameter column in 20 min at 3 µl/min). The eluent was analyzed directly by MS/MS. […] The inset is a sample collision-induced dissociation spectrum (35% intensity) recorded at 61–65 min. (2.15 MB TIF) Click here for additional data file.
(In general: Size exclusion chromatography separates by hydrodynamic size, large species first.)

Assay [3] concerns the target T1, AnSt-D7L1. Particulars: for binding to AnSt-D7L1 by ITC (in words): ITC screen of candidate ligands, partly unpublished data; for Kd: read-out: dissociation constant (Kd), ITC, 35°C, 40 µM ligand in syringe, 4 µM AnSt-D7L1 in cell, single binding site model.
Method: (§1) Binding experiments were performed on a MicroCal VP-ITC instrument. For CysLT experiments the syringe contained a 20 µM ligand solution, and the AnSt-D7L1 concentration in the cell was 2 µM. For the TXA2 analog experiments the ligand solution used to fill the syringe was 40 µM and the AnSt-D7L1 concentration in the cell was 4 µM. Assays were performed at 35°C with successive 10 µL injections.
(§2) Binding experiments were performed on a MicroCal VP-ITC instrument. For these experiments, the ligand solution used to fill the syringe was 80 µM and AnSt-D7L1 concentration in the calorimeter cell was 8 µM. Assays were performed at 35°C with successive 10 µL injections.
(§3) AnSt-D7L1 was prepared for ITC experiments by dialysis against 20 mM Tris-HCl 0.15 M NaCl pH 7.4 for 1 h. Binding experiments were performed on a MicroCal VP-ITC instrument. Aliquots of lipid stock solutions in ethanol or methyl acetate were dried under a stream of nitrogen in a glass vial, then dissolved in 20 mM Tris HCl, 0.15 M NaCl pH 7.4, vortexed, and sonicated for 8 min. Non-lipidic ligands were dissolved in 20 mM Tris HCl, 0.15 M NaCl pH 7.4. All solutions were degassed prior to use. Assays were performed at 35°C with successive 10 µL injections, with a spacing interval of 180 s and a syringe stirring speed of 290 rpm. In all the cases, after subtraction of the heats of dilution, the measured heats were converted to enthalpies and analyzed by fitting to a single-site binding model using the Microcal Origin software.
The target in assay [4] is CysLT1. The arrangement: method as in PMID 16107763. Particulars: read-out: affinity of CysLT1; cited from earlier work.
The target of assay [5] is T1, AnSt-D7L1. As to the kind of experiment: biochemical.
Method: as §1, §2, §3
Assay [6] concerns rat aorta. Description: Smooth muscle bioassay: U46619-induced contraction of rat aorta. As for the experimental part:
Figure 4 Smooth muscle contraction bioassay.
Tissue preparations were bathed in modified Tyrode solution (with 10 mM HEPES buffer, pH 7.4) during the course of the experiment, and the solutions were kept oxygenated by bubbling air into the bath.

The subject of assay [7] is AeD7. The arrangement: method as in PMID 19234127. Particulars: cited from earlier work.
Assay [8] concerns the target TP receptor. The arrangement: method as in PMID 18374420. Particulars: Gα12/13-coupled signaling; read-out: EC50 for TP-mediated shape change; cited from earlier work.

Entries after “also recorded” stand apart in the source; their conditions may differ. Read-outs that look alike come from different tables or passages of the source.

T1 sequence (Q95NY5 19-315 limits assumed): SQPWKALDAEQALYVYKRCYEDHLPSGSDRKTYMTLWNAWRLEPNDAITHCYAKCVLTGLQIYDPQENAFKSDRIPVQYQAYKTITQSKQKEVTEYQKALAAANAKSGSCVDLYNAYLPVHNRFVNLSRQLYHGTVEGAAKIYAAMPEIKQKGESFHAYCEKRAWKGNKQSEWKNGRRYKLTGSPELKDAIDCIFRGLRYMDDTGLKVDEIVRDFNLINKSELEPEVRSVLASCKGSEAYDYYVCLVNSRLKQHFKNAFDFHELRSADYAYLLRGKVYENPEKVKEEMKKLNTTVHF

On to `COc1ccc2c(c1)c(CC(=O)O)c(C)n2C(=O)c1ccc(Cl)cc1` [indomethacin], for which, in assay [1], the “effect on collagen-induced platelet aggregation (comparison with TXA2 antagonists)” value (“effect … (comparison with TXA2 antagonists)” for short) is “attenuated”.
For `CCCCC/C=C\C\C=C/C=C/C=C/[C@@H](SC[C@H](NC(=O)CC[C@H](N)C(=O)O)C(=O)NCC(=O)O)[C@@H](O)CCCC(=O)O` [LTC4, leukotriene C4], the “chemical modification of bound LTC4 by AnSt-D7L1” value in assay [2] was “binds but does not chemically modify”.
Regarding platelet activating factor [PAF], the “binding to AnSt-D7L1 by ITC (in words)” value in assay [3] is recorded as “Neither showed any detectable binding”.
As to `CCCCC/C=C\C\C=C/C=C/C=C/[C@@H](SC[C@H](N)C(=O)O)[C@@H](O)CCCC(=O)O` [LTE4, leukotriene E4], the Kd in assay [4] was approximately 0.1 µM.
In the case of `CCCCCC/C=C/C1C2CC(N=N2)C1C/C=C\CCCC(=O)O` (stereo not shown) [U51605], the “binding to AnSt-D7L1 by ITC (in words)” value in assay [3] is on record as “detectable but much weaker binding than U46619”.
For the compound `CCCCC[C@H](O)/C=C/[C@H]1[C@H](O)CC(=O)[C@@H]1C/C=C\CCCC(=O)O` [PGE2, prostaglandin E2], the “binding to AnSt-D7L1 by ITC (in words)” value in assay [3] was “affinities much lower than those seen with CysLTs and TXA2 analogs”. Moreover, the Kd in assay [5] was 1.9 ± 0.2 µM.
With `CNC[C@H](O)c1cccc(O)c1` [phenylephrine], the “contraction of aorta after relaxation by AnSt-D7L1” value in assay [6] (3 µM phenylephrine added after relaxation) is “contracted normally”.
`Nc1ncnc2c1ncn2[C@@H]1O[C@H](COP(=O)(O)OP(=O)(O)O)[C@@H](O)[C@H]1O` [ADP, adenosine diphosphate]: the “binding to AnSt-D7L1 by ITC (in words)” value in assay [3] was “Neither showed any detectable binding”.
Take `CCCCC[C@H](O)/C=C/[C@H]1CC2CC(C2)[C@@H]1C/C=C\CCCC(=O)O` [carbocyclic TXA2]: in assay [3], the Kd is approximately 0.038 µM.
As to `O=C(O)CCC/C=C\C[C@@H]1[C@H](CNNC(=O)Nc2ccccc2)[C@H]2CC[C@@H]1O2` [SQ 29,548], in assay [1], the “effect on U46619-induced platelet shape change” value is recorded as “prevented” and the “effect … (comparison with TXA2 antagonists)” value is given as “attenuated”.
With `CCCCC/C=C\C/C=C\C/C=C\C/C=C\CCCC(=O)O` [AA, arachidonic acid], the “binding to AnSt-D7L1 by ITC (in words)” value in assay [3] is “no detectable binding”.
Consider `CCCCC[C@H](O)/C=C/[C@@H]1[C@@H](C/C=C\CCCC(=O)O)[C@@H](O)C[C@H]1O` [PGF2α, prostaglandin F2α], for which the “binding to AnSt-D7L1 by ITC (in words)” value in assay [3] is “affinities much lower than those seen with CysLTs and TXA2 analogs”. In addition, the Kd in assay [5] is 0.671 ± 0.061 µM.
In turn, `CCCCC[C@H](O)/C=C/[C@H]1OC(O)C[C@H](O)[C@@H]1C/C=C\CCCC(=O)O` (stereo partly shown) [TXB2, thromboxane B2] had a Kd in assay [5] of 1.3 ± 0.2 µM.
The compound `CCCCC/C=C\C\C=C/C=C/C=C/[C@@H](SC[C@H](N)C(=O)NCC(=O)O)[C@@H](O)CCCC(=O)O` [LTD4, leukotriene D4] registered a Kd in assay [5] of 0.005 ± 0.001 µM.
For the compound `CCCCC[C@H](O)/C=C/[C@@H]1[C@@H](C/C=C\CCCC(=O)O)[C@H]2CO[C@@H]1C2` [U46619], the Kd in assay [3] was approximately 0.098 µM. Moreover, the “binding to AeD7 (in words)” value in assay [7] is given as “no detectable binding”. In addition, the EC50 in assay [8] was approximately 0.013 µM.
Consider `CCCCC[C@H](O)/C=C/[C@H]1C(=O)C[C@H](O)[C@@H]1C/C=C\CCCC(=O)O` [PGD2], for which the “binding to AnSt-D7L1 by ITC (in words)” value in assay [3] was “affinities much lower than those seen with CysLTs and TXA2 analogs”.
For `CCCCC/C=C\C[C@@H](O)/C=C/C=C/C=C\[C@@H](O)CCCC(=O)O` [LTB4, leukotriene B4], the “binding to AnSt-D7L1 by ITC (in words)” value in assay [3] is recorded as “did not bind”. Moreover, the “binding to AeD7 (in words)” value in assay [7] is recorded as “low affinity”.
For “AnSt-D7L1: recombinant two-domain D7 salivary protein from An. stephensi that binds CysLTs and TXA2”, the “effect on U46619-induced platelet aggregation” value in assay [1] (1 µM AnSt-D7L1) was “dramatically inhibited aggregation”; in assay [1] (2 and 3 µM AnSt-D7L1) it was “completely prevented aggregation”; in assay [1] (low AnSt-D7L1 concentrations, less than 1:1 ratio) it was “delayed but did not prevent platelet aggregation”. Also, the “effect on U46619-induced platelet shape change” value in assay [1] is recorded as “not completely inhibited”. Further, in assay [1] (AA as agonist, 3 µM AnSt-D7L1, or indomethacin pre-incubation without protein), the “effect on AA-induced platelet aggregation” value is listed as “drastically decreased”. Besides, in assay [1] (GPVI agonist convulxin), the “inhibition of convulxin-induced platelet aggregation” value is listed as “inhibitory effect of AnSt-D7L1 was lost”. In addition, the “inhibition of collagen-induced platelet aggregation” value was “inhibitory effect of AnSt-D7L1 was lost” in assay [1] (collagen at high concentration) and “almost completely inhibited” in assay [1] (low collagen 1.6 µg/mL, 1 µM AnSt-D7L1). For the same compound, in assay [1], the “effect … (comparison with TXA2 antagonists)” value was “very similar”. Further, the “effect on the platelet response to collagen stimulation” value in assay [1] (low collagen, 0.03 µM AnSt-D7L1) is on record as “sufficient to remove a significant fraction of the TXA2”. The “effect on the platelet aggregation response to collagen” value in assay [1] (low collagen, 0.1 µM AnSt-D7L1) is recorded as “eliminates most of the aggregation response”. In addition, the “inhibition of ADP-induced platelet shape change” value in assay [1] (minimal dose of ADP eliciting shape change, 3 µM protein) was “no inhibitory effect”. Besides, the “effect on PMA-induced platelet aggregation” value in assay [1] (protein kinase C activator PMA) is “no effect”. Besides, the “effect on ristocetin-induced platelet agglutination” value in assay [1] (ristocetin, VWF-dependent) was “no effect”. In addition, the “reversal of contraction induced by U46619” value in assay [6] (aorta pre-contracted with 1 µM U46619, 0.1 µM AnSt-D7L1 added after plateau) is “caused relaxation”. Further, the “effect on U46619-induced contraction of aorta” value in assay [6] (pre-incubation with AnSt-D7L1, 0.1 µM U46619) is listed as “inhibited; also recorded: no contraction”. Further, in assay [6] (pre-incubation with AnSt-D7L1, successive additions of 0.1 µM U46619), the “increase of the amount of U46619 needed to promote contraction” value is given as “approximately 3 fold”.
